± gives the expanded uncertainty stated by the source.
Assay: xn = mol fraction of the nth substance listed
Conditions: surface light scattering

CCCCCCO [hexan-1-ol] + CC(C)CC(C)(C)C
surface tension liquid-gas [mN/m]
Conditions | x2 = 0 | x2 = 0.1001 | x2 = 0.2 | x2 = 0.3001 | x2 = 0.4 | x2 = 0.5 | x2 = 0.6001 | x2 = 0.7001 | x2 = 0.7997 | x2 = 0.8998
298.15 K | 25.56 ± 0.29 | 24.01 ± 0.26 | 22.65 ± 0.25 | 21.78 ± 0.23 | 21.03 ± 0.22 | 20.33 ± 0.21 | 19.78 ± 0.2 | 19.38 ± 0.2 | 18.95 ± 0.19 | 18.65 ± 0.19
303.15 K | 24.95 ± 0.28 | 23.31 ± 0.26 | 22.03 ± 0.24 | 21.17 ± 0.23 | 20.44 ± 0.22 | 19.76 ± 0.21 | 19.25 ± 0.2 | 18.88 ± 0.19 | 18.47 ± 0.19 | 18.22 ± 0.18
308.15 K | 24.65 ± 0.28 | 22.99 ± 0.25 | 21.62 ± 0.23 | 20.74 ± 0.22 | 19.99 ± 0.21 | 19.3 ± 0.2 | 18.77 ± 0.19 | 18.41 ± 0.19 | 18 ± 0.18 | 17.75 ± 0.18
313.15 K | 23.93 ± 0.27 | 22.3 ± 0.25 | 20.9 ± 0.23 | 20.05 ± 0.21 | 19.34 ± 0.2 | 18.69 ± 0.2 | 18.21 ± 0.19 | 17.9 ± 0.18 | 17.54 ± 0.18 | 17.37 ± 0.18
318.15 K | 23.58 ± 0.26 | 21.91 ± 0.24 | 20.45 ± 0.22 | 19.58 ± 0.21 | 18.85 ± 0.2 | 18.17 ± 0.19 | 17.69 ± 0.18 | 17.37 ± 0.18 | 17.01 ± 0.17 | 16.84 ± 0.17
323.15 K | 23.21 ± 0.26 | 21.43 ± 0.24 | 19.99 ± 0.22 | 19.11 ± 0.2 | 18.38 ± 0.19 | 17.71 ± 0.19 | 17.24 ± 0.18 | 16.94 ± 0.17 | 16.6 ± 0.17 | 16.47 ± 0.17

CCCCCCCO [heptan-1-ol] + CC(C)CC(C)(C)C
surface tension liquid-gas [mN/m]
Conditions | x2 = 0 | x2 = 0.1003 | x2 = 0.2002 | x2 = 0.3002 | x2 = 0.3999 | x2 = 0.5 | x2 = 0.6 | x2 = 0.6999 | x2 = 0.7999 | x2 = 0.8999
298.15 K | 26.46 ± 0.3 | 24.78 ± 0.27 | 23.26 ± 0.25 | 22.3 ± 0.24 | 21.46 ± 0.23 | 20.67 ± 0.22 | 20.04 ± 0.21 | 19.59 ± 0.2 | 19.07 ± 0.19 | 18.72 ± 0.19
303.15 K | 25.93 ± 0.29 | 24.13 ± 0.27 | 22.69 ± 0.25 | 21.74 ± 0.23 | 20.9 ± 0.22 | 20.14 ± 0.21 | 19.53 ± 0.2 | 19.1 ± 0.2 | 18.61 ± 0.19 | 18.29 ± 0.18
308.15 K | 25.43 ± 0.28 | 23.63 ± 0.26 | 22.12 ± 0.24 | 21.15 ± 0.23 | 20.32 ± 0.21 | 19.55 ± 0.2 | 18.97 ± 0.2 | 18.55 ± 0.19 | 18.08 ± 0.18 | 17.81 ± 0.18
313.15 K | 24.95 ± 0.28 | 23.15 ± 0.26 | 21.61 ± 0.23 | 20.65 ± 0.22 | 19.83 ± 0.21 | 19.08 ± 0.2 | 18.51 ± 0.19 | 18.13 ± 0.19 | 17.68 ± 0.18 | 17.45 ± 0.18
318.15 K | 24.55 ± 0.27 | 22.72 ± 0.25 | 21.11 ± 0.23 | 20.14 ± 0.22 | 19.3 ± 0.2 | 18.55 ± 0.19 | 17.97 ± 0.19 | 17.59 ± 0.18 | 17.14 ± 0.17 | 16.92 ± 0.17
323.15 K | 24.03 ± 0.27 | 22.13 ± 0.24 | 20.53 ± 0.22 | 19.6 ± 0.21 | 18.77 ± 0.2 | 18 ± 0.19 | 17.48 ± 0.18 | 17.12 ± 0.18 | 16.71 ± 0.17 | 16.53 ± 0.17

CCO [ethanol] + CCCCCCC
x2 = 0
Conditions | surface tension liquid-gas [mN/m]
293.15 K | 22.31 ± 0.23
298.15 K | 21.85 ± 0.23
303.15 K | 21.41 ± 0.22
308.15 K | 21.04 ± 0.22
313.15 K | 20.62 ± 0.21
318.15 K | 20.29 ± 0.21

CC(C)CC(C)(C)C [2,2,4-trimethylpentane] + CCO
surface tension liquid-gas [mN/m]
Conditions | x1 = 0.0429 | x1 = 0.0916 | x1 = 0.1474 | x1 = 0.2119 | x1 = 0.2874 | x1 = 0.3769 | x1 = 0.4848 | x1 = 0.6173 | x1 = 0.784 | x1 = 1
288.15 K | 22.27 ± 0.23 | 21.88 ± 0.23 | 21.47 ± 0.22 | 21.11 ± 0.22 | 20.74 ± 0.21 | 20.4 ± 0.21 | 20.03 ± 0.2 | 19.75 ± 0.2 | 19.5 ± 0.2 | 19.14 ± 0.19
298.15 K | 21.38 ± 0.22 | 20.96 ± 0.22 | 20.54 ± 0.21 | 20.17 ± 0.21 | 19.8 ± 0.2 | 19.46 ± 0.2 | 19.09 ± 0.19 | 18.83 ± 0.19 | 18.62 ± 0.19 | 18.3 ± 0.18
308.15 K | 20.54 ± 0.21 | 20.11 ± 0.21 | 19.66 ± 0.2 | 19.28 ± 0.2 | 18.9 ± 0.19 | 18.55 ± 0.19 | 18.17 ± 0.18 | 17.92 ± 0.18 | 17.73 ± 0.18 | 17.43 ± 0.18
318.15 K | 19.77 ± 0.2 | 19.31 ± 0.2 | 18.85 ± 0.19 | 18.45 ± 0.19 | 18.05 ± 0.18 | 17.7 ± 0.18 | 17.31 ± 0.18 | 17.05 ± 0.17 | 16.86 ± 0.17 | 16.56 ± 0.17

CCCCCO [pentan-1-ol] + CC(C)CC(C)(C)C
surface tension liquid-gas [mN/m]
Conditions | x2 = 0 | x2 = 0.1004 | x2 = 0.2003 | x2 = 0.3 | x2 = 0.4 | x2 = 0.5 | x2 = 0.5999 | x2 = 0.6998 | x2 = 0.7999 | x2 = 0.8996
298.15 K | 25.29 ± 0.28 | 23.81 ± 0.26 | 22.53 ± 0.24 | 21.7 ± 0.23 | 20.97 ± 0.22 | 20.3 ± 0.21 | 19.77 ± 0.2 | 19.38 ± 0.2 | 18.94 ± 0.19 | 18.64 ± 0.19
303.15 K | 24.87 ± 0.28 | 23.28 ± 0.26 | 22.05 ± 0.24 | 21.22 ± 0.23 | 20.49 ± 0.22 | 19.82 ± 0.21 | 19.3 ± 0.2 | 18.93 ± 0.19 | 18.51 ± 0.19 | 18.22 ± 0.18
308.15 K | 24.46 ± 0.27 | 22.83 ± 0.25 | 21.56 ± 0.23 | 20.71 ± 0.22 | 19.98 ± 0.21 | 19.3 ± 0.2 | 18.79 ± 0.19 | 18.42 ± 0.19 | 18.01 ± 0.18 | 17.75 ± 0.18
313.15 K | 24.05 ± 0.27 | 22.42 ± 0.25 | 21.08 ± 0.23 | 20.23 ± 0.22 | 19.51 ± 0.21 | 18.84 ± 0.2 | 18.34 ± 0.19 | 18 ± 0.18 | 17.61 ± 0.18 | 17.38 ± 0.18
318.15 K | 23.65 ± 0.26 | 21.99 ± 0.24 | 20.58 ± 0.22 | 19.71 ± 0.21 | 18.97 ± 0.2 | 18.3 ± 0.19 | 17.79 ± 0.18 | 17.45 ± 0.18 | 17.07 ± 0.17 | 16.85 ± 0.17
323.15 K | 23.21 ± 0.26 | 21.5 ± 0.24 | 20.14 ± 0.22 | 19.26 ± 0.21 | 18.51 ± 0.2 | 17.83 ± 0.19 | 17.34 ± 0.18 | 17.02 ± 0.17 | 16.65 ± 0.17 | 16.43 ± 0.17

CC(C)CC(C)(C)C [2,2,4-trimethylpentane] + CCCO
surface tension liquid-gas [mN/m]
Conditions | x1 = 0.1 | x1 = 0.2 | x1 = 0.3 | x1 = 0.4 | x1 = 0.4999 | x1 = 0.5996 | x1 = 0.6998 | x1 = 0.7995 | x1 = 0.9 | x1 = 1
298.15 K | 22.09 ± 0.23 | 21.18 ± 0.22 | 20.58 ± 0.21 | 20.05 ± 0.2 | 19.57 ± 0.2 | 19.22 ± 0.19 | 18.96 ± 0.19 | 18.69 ± 0.19 | 18.51 ± 0.19 | 18.3 ± 0.18
303.15 K | 21.65 ± 0.22 | 20.73 ± 0.21 | 20.12 ± 0.21 | 19.6 ± 0.2 | 19.12 ± 0.19 | 18.77 ± 0.19 | 18.53 ± 0.19 | 18.26 ± 0.18 | 18.09 ± 0.18 | 17.9 ± 0.18
308.15 K | 21.23 ± 0.22 | 20.28 ± 0.21 | 19.66 ± 0.2 | 19.12 ± 0.19 | 18.64 ± 0.19 | 18.29 ± 0.19 | 18.05 ± 0.18 | 17.78 ± 0.18 | 17.62 ± 0.18 | 17.43 ± 0.18
313.15 K | 20.77 ± 0.21 | 19.81 ± 0.2 | 19.19 ± 0.2 | 18.66 ± 0.19 | 18.19 ± 0.19 | 17.85 ± 0.18 | 17.63 ± 0.18 | 17.39 ± 0.18 | 17.25 ± 0.17 | 17.09 ± 0.17
318.15 K | 20.31 ± 0.21 | 19.31 ± 0.2 | 18.67 ± 0.19 | 18.13 ± 0.18 | 17.65 ± 0.18 | 17.31 ± 0.18 | 17.09 ± 0.17 | 16.85 ± 0.17 | 16.72 ± 0.17 | 16.56 ± 0.17
323.15 K | 19.84 ± 0.2 | 18.82 ± 0.19 | 18.18 ± 0.19 | 17.64 ± 0.18 | 17.17 ± 0.17 | 16.84 ± 0.17 | 16.65 ± 0.17 | 16.43 ± 0.17 | 16.33 ± 0.16 | 16.2 ± 0.2

CCO [ethanol] + CC(C)CC(C)(C)C
x2 = 0
Conditions | surface tension liquid-gas [mN/m]
288.15 K | 22.72 ± 0.23
298.15 K | 21.85 ± 0.23
308.15 K | 21.04 ± 0.22
318.15 K | 20.29 ± 0.21

CC(C)CC(C)(C)C [2,2,4-trimethylpentane] + CCCCCCO
x1 = 1
Conditions | surface tension liquid-gas [mN/m]
298.15 K | 18.3 ± 0.18
303.15 K | 17.9 ± 0.18
308.15 K | 17.43 ± 0.18
313.15 K | 17.09 ± 0.17
318.15 K | 16.56 ± 0.17
323.15 K | 16.2 ± 0.16

CC(C)CC(C)(C)C [2,2,4-trimethylpentane] + CCCCCCCO
x1 = 1
Conditions | surface tension liquid-gas [mN/m]
298.15 K | 18.3 ± 0.18
303.15 K | 17.9 ± 0.18
308.15 K | 17.43 ± 0.18
313.15 K | 17.09 ± 0.17
318.15 K | 16.56 ± 0.17
323.15 K | 16.2 ± 0.16

CC(C)CC(C)(C)C [2,2,4-trimethylpentane] + CCCCCO
x1 = 1
Conditions | surface tension liquid-gas [mN/m]
298.15 K | 18.3 ± 0.18
303.15 K | 17.9 ± 0.18
308.15 K | 17.43 ± 0.18
313.15 K | 17.09 ± 0.17
318.15 K | 16.56 ± 0.17
323.15 K | 16.2 ± 0.16

CCCO [propan-1-ol] + CC(C)CC(C)(C)C
x2 = 0
Conditions | surface tension liquid-gas [mN/m]
298.15 K | 23.31 ± 0.24
303.15 K | 22.9 ± 0.24
308.15 K | 22.52 ± 0.23
313.15 K | 22.1 ± 0.23
318.15 K | 21.68 ± 0.22
323.15 K | 21.27 ± 0.22

— the NIST ThermoML archive (doi:10.1021/acs.jced.5b00903)
